Reference: ChEMBL document CHEMBL6078657, “Thiazolidinedione-based structure modification of ergosterol peroxide provides thiazolidinedione-conjugated derivatives as potent agents against breast cancer cells through a PI3K/AKT/mTOR pathway” (Bioorg Med Chem, 2025)
Activity calls are given as the source filed them. The calls are words filed in the database; no cut-off is given here.

Columns and labels:
MCF7 [1] = assay: Induction of apoptosis in human MCF7 cells assessed as decrease in mitochondrial membrane potential by measuring increase in JC-1 monomer (green fluorescence) at 1 uM incubated for 48 hrs by JC-1 staining based flow cytometry analysis (reference value: 2.96%); format: functional; set-up: scale not given: the % may be the effect or the level left
MCF7 [2] = assay: Induction of apoptosis in human MCF7 cells assessed as early apoptotic cells at 1 uM measured after 48 hrs incubation by Annexin V-FITC/PI double staining assay (reference value: 5.73%); format: functional
MCF7 [3] = assay: Induction of apoptosis in human MCF7 cells assessed as late apoptotic cells at 3 uM measured after 48 hrs incubation by Annexin V-FITC/PI double staining assay (reference value: 0.68%); format: functional
MCF7 [4] = assay: Induction of apoptosis in human MCF7 cells assessed as necrotic cells at 1 uM measured after 48 hrs incubation by Annexin V-FITC/PI double staining assay (reference value: 0.77%); format: functional
[5] = Toxicity in healthy BALB/c mouse assessed as pathological changes in liver at 20 mg/kg, ip daily for 14 consecutive days by HE staining based assay; format: organism-based; details: in vivo, 336 h, time 14 day
[6] = Toxicity in healthy BALB/c mouse assessed as pathological changes in kidney at 40 mg/kg, ip daily for 14 consecutive days by HE staining based assay; format: organism-based; details: in vivo
[7] = molecular target: Serine/threonine-protein kinase mTOR (Homo sapiens) (UniProt P42345); assay: Inhibition of phosphorylation of mTOR in human MCF7 cells measured after 48 hrs by Western blot analysis; format: cell-based; details: dose 1-6 µM
[8] = Toxicity in healthy BALB/c mouse assessed as pathological changes in lungs at 40 mg/kg, ip daily for 14 consecutive days by HE staining based assay; format: organism-based; details: in vivo, 336 h, time 14 day
MCF7 [9] = assay: Induction of cell cycle arrest in human MCF7 cells assessed as accumulation of cells at G0/G1 phase at 3 uM measured after 48 hrs by PI staining based flow cytometry analysis (reference value: 58.42%); format: functional
MCF7 [10] = assay: Induction of cell cycle arrest in human MCF7 cells assessed as accumulation of cells at S phase at 3 uM measured after 48 hrs by PI staining based flow cytometry analysis (reference value: 24.67%); format: functional
MCF7 [11] = assay: Induction of apoptosis in human MCF7 cells assessed as decrease in mitochondrial membrane potential by measuring increase in JC-1 monomer (green fluorescence) incubated for 48 hrs by JC-1 staining based flow cytometry analysis; format: functional, cell-based; details: dose 1-6 µM
MCF7 [12] = assay: Antiproliferative activity against human MCF7 cells assessed as cell viability measured after 48 hrs incubation by MTT assay; format: functional, cell-based; details: MCF7, 48 h
MCF7 [13] = assay: Induction of apoptosis in human MCF7 cells assessed as necrotic cells at 3 uM measured after 48 hrs incubation by Annexin V-FITC/PI double staining assay (reference value: 0.77%); format: functional
[14] = Toxicity in healthy BALB/c mouse assessed as pathological changes in liver at 40 mg/kg, ip daily for 14 consecutive days by HE staining based assay; format: organism-based; details: in vivo, 336 h, time 14 day
MCF7 [15] = assay: Growth inhibition of human MCF7 cells assessed as ruptured membrane and shrunken nucleus at 1 to 6 uM incubated up to 48 hrs by acridine orange/ethidium bromide (AO/EB) staining based assay; format: functional, cell-based; details: dose 1-6 µM
MCF7 [16] = assay: Induction of cell cycle arrest in human MCF7 cells assessed as accumulation of cells at G0/G1 phase at 1 uM measured after 48 hrs by PI staining based flow cytometry analysis (reference value: 58.42%); format: functional
MCF7 [17] = assay: Induction of apoptosis in human MCF7 cells assessed as decrease in mitochondrial membrane potential by measuring increase in JC-1 monomer (green fluorescence) at 3 uM incubated for 48 hrs by JC-1 staining based flow cytometry analysis (reference value: 2.96%); format: functional; set-up: scale not given: the % may be the effect or the level left
MCF7 [18] = assay: Induction of cell cycle arrest in human MCF7 cells assessed as accumulation of cells at S phase at 6 uM measured after 48 hrs by PI staining based flow cytometry analysis (reference value: 24.67%); format: functional
[19] = Antiproliferative activity against human MCF-10A cells assessed as cell viability measured after 48 hrs incubation by MTT assay; format: toxicity, cell-based
MCF7 [20] = assay: Induction of apoptosis in human MCF7 cells assessed as early apoptotic cells at 6 uM measured after 48 hrs incubation by Annexin V-FITC/PI double staining assay (reference value: 5.73%); format: functional
MCF7 [21] = assay: Induction of apoptosis in human MCF7 cells assessed as decrease in mitochondrial membrane potential by measuring increase in JC-1 monomer (green fluorescence) at 6 uM incubated for 48 hrs by JC-1 staining based flow cytometry analysis (reference value: 2.96%); format: functional; set-up: scale not given: the % may be the effect or the level left
[22] = Toxicity in healthy BALB/c mouse assessed as pathological changes in heart at 40 mg/kg, ip daily for 14 consecutive days by HE staining based assay; format: organism-based; details: in vivo, 336 h, time 14 day
4T1 = assay: In vivo antitumor activity against mouse 4T1 cells transfected in BALB/c mouse assessed as tumor growth inhibition at 30 mg/kg, ip daily for 14 consecutive days relative to control; format: functional; details: 4T1, 336 h, time 14 day, read-out: TGI
MCF7 [23] = assay: Induction of apoptosis in human MCF7 cells assessed as late apoptotic cells at 1 uM measured after 48 hrs incubation by Annexin V-FITC/PI double staining assay (reference value: 0.68%); format: functional
A549 = assay: Antiproliferative activity against human A549 cells assessed as cell viability measured after 48 hrs incubation by MTT assay; format: functional, cell-based; details: A549, 48 h
[24] = Toxicity in healthy BALB/c mouse assessed as pathological changes in spleen at 40 mg/kg, ip daily for 14 consecutive days by HE staining based assay; format: organism-based; details: in vivo, 336 h, time 14 day
MCF7 [25] = assay: Induction of apoptosis in human MCF7 cells assessed as early apoptotic cells at 3 uM measured after 48 hrs incubation by Annexin V-FITC/PI double staining assay (reference value: 5.73%); format: functional
MCF7 [26] = assay: Induction of apoptosis in human MCF7 cells assessed as viable cells at 3 uM measured after 48 hrs incubation by Annexin V-FITC/PI double staining assay (reference value: 92.8%); format: functional; details: read-out: Activity
MCF7 [27] = assay: Induction of apoptosis in human MCF7 cells assessed as necrotic cells at 6 uM measured after 48 hrs incubation by Annexin V-FITC/PI double staining assay (reference value: 0.77%); format: functional
MCF7 [28] = assay: Induction of apoptosis in human MCF7 cells assessed as late apoptotic cells at 6 uM measured after 48 hrs incubation by Annexin V-FITC/PI double staining assay (reference value: 0.68%); format: functional
MCF7 [29] = assay: Induction of apoptosis in human MCF7 cells assessed as viable cells at 1 uM measured after 48 hrs incubation by Annexin V-FITC/PI double staining assay (reference value: 92.8%); format: functional; details: read-out: Activity
[30] = Toxicity in healthy BALB/c mouse assessed as pathological changes in heart at 20 mg/kg, ip daily for 14 consecutive days by HE staining based assay; format: organism-based; details: in vivo, 336 h, time 14 day
[31] = Selectivity index, ratio of IC50 for human MCF-10A cells to IC50 for human MCF7 cells; format: toxicity; details: MCF-10A cells and MCF7 cells, read-out: Selectivity Index
MCF7 [32] = assay: Inhibition of phosphorylation of Akt in human MCF7 cells measured after 48 hrs by Western blot analysis; format: cell-based; details: dose 1-6 µM

Structure (SMILES): CC(C)[C@@H](C)/C=C/[C@@H](C)[C@H]1CC[C@@H]2[C@]1(C)CC[C@H]1[C@]23C=C[C@]2(C[C@@H](OC(=O)NCCNC(=O)CN4C(=O)S/C(=C\c5cccc6ccccc56)C4=O)CC[C@]12C)OO3
- Activity (MCF7 [1]): 12.9%
- Activity (MCF7 [2]): 13.7%
- Activity (MCF7 [3]): 0.77%
- Activity (MCF7 [4]): 0.99%
- Activity [5]: Non-toxic
- Activity [6]: Non-toxic
- inhibition [7]: Dose-dependent-effect
- Activity [8]: Non-toxic
- Activity (MCF7 [9]): 80.77%
- Activity (MCF7 [10]): 8.41%
- Activity (MCF7 [11]): Dose-dependent-effect
- IC50 (MCF7 [12]): 3.06 µM
- Activity (MCF7 [13]): 0.77%
- Activity [14]: Non-toxic
- growth inhibition (GI) (MCF7 [15]): Active
- Activity (MCF7 [16]): 66.09%
- Activity (MCF7 [17]): 26.2%
- Activity (MCF7 [18]): 2.87%
- IC50 at 48 h [19]: 32.3 µM
- Activity (MCF7 [20]): 44.5%
- Activity (MCF7 [21]): 49.5%
- Activity [22]: Non-toxic
- inhibition in vivo at 30 mg/kg (4T1): 86.2%
- Activity (MCF7 [23]): 0.9%
- IC50 (A549): 4.76 µM
- Activity [24]: Non-toxic
- Activity (MCF7 [25]): 22.8%
- viability at 3 µM (MCF7 [26]): 75.7%
- Activity (MCF7 [27]): 0.72%
- Activity (MCF7 [28]): 1.75%
- viability at 1 µM (MCF7 [29]): 84.4%
- Activity [30]: Non-toxic
- selectivity ratio [31]: 10.6
- inhibition (MCF7 [32]): Dose-dependent-effect
